The record followed here is patent US20260347364A1, “PYRAZOLO[4,3-F]QUINAZOLINE DERIVATIVES AS MODULATORS OF G12D MUTANT KRAS USEFUL FOR THE TREATMENT OF CANCER” (JAZZ PHARMACEUTICALS IRELAND LTD., priority 2023, published 2026).

The target of one test is T1, KRAS WT (Homo sapiens, UniProt P01116).
T1 construct: aa1-188 KRAS WT
In words: HTRF nucleotide exchange assay, KRAS WT. The note with it: class symbols; for IC50: HTRF nucleotide exchange assay (NEA). In kind it is biochemical. Background: Time-resolved FRET reads energy transfer from a long-lived donor to a nearby acceptor.

The next test deals with T2, KRAS G12D (Homo sapiens, UniProt P01116, G12D).
T2 construct: aa1-188 KRAS WT, HRAS WT, NRAS WT, or KRAS containing the G12D
In words: HTRF nucleotide exchange assay, KRAS G12D. The test is classed as biochemical. The note with it: class symbols; for IC50: HTRF nucleotide exchange assay (NEA).

Consider `CCc1c(F)ccc2cc(O)cc(-c3cc4nc(OCC5(CN6CCCC6)CC5)nc(N5CCCn6nc(C(=O)N(C)C)cc6C5)c4c4cn(C)nc34)c12` [Example 52], for which the values for the IC50 at KRAS WT and at KRAS G12D were 10 to 100 nM and at most 10 nM, respectively.
As for `CCc1c(F)ccc2cc(O)cc(-c3cc4nc(OC[C@]5(C)CCCN5)nc(N5CCCn6nc(C(=O)N(C)C)cc6C5)c4c4cn(C)nc34)c12` [Example 53, 5-[4-(8-ethyl-7-fluoro-3-hydroxy-1-naphthyl)-2-methyl-7-[[(2S)-2-methylpyrrolidin-2-yl]methoxy]pyrazolo[4,3-f]quinazolin-9-yl]-N,N-dimethyl-4,6,7,8-tetrahydropyrazolo[1,5-a][1,4]diazepine-2-carboxamide], at KRAS WT, the “KRAS^WT NEA” value was “D (<49% inhibition at 10 μM)”. Besides, the IC50 – broadly, the concentration that gives 50% inhibition – against KRAS G12D was 100 to 10000 nM.
With `Cn1cc2c(n1)c(-c1cc(O)cc3c1C(=O)CCC3)cc1nc(OC[C@@]34CCCN3C[C@H](F)C4)nc(N3CCCOCC3)c12` [Example 58, 6-hydroxy-8-[2-methyl-9-(1,4-oxazepan-4-yl)-7-[[(2R,8S)-2-fluoro-1,2,3,5,6,7-hexahydropyrrolizin-8-yl]methoxy]pyrazolo[4,3-f]quinazolin-4-yl]tetralin-1-one], the “KRAS^WT NEA” value on KRAS WT is reported as “D (<49% inhibition at 10 μM)”. On KRAS G12D, the “KRAS^G12D NEA” value is “D (<49% inhibition at 10 μM)”.
Regarding `CCc1c(F)ccc2cc(O)cc(-c3cc4nc(OC[C@@]56CCCN5C[C@H](F)C6)nc(N5CCCn6nccc6C5)c4c4cn(C)nc34)c12` [Example 59, 5-ethyl-6-fluoro-4-[2-methyl-7-[[(2R,8S)-2-fluoro-1,2,3,5,6,7-hexahydropyrrolizin-8-yl]methoxy]-9-(4,6,7,8-tetrahydropyrazolo[1,5-a][1,4]diazepin-5-yl)pyrazolo[4,3-f]quinazolin-4-yl]naphthalen-2-ol], the IC50 at KRAS WT was 10 to 100 nM; against KRAS G12D, at most 10 nM.
As for `Cc1cc2[nH]ncc2c(-c2cc3nc(OC[C@@]45CCCN4C[C@H](F)C5)nc(N4CCCn5nc(C(=O)N(C)C)cc5C4)c3c3cn(C)nc23)c1C` [Example 60, 5-[4-(5,6-dimethyl-1H-indazol-4-yl)-2-methyl-7-[[(2R,8S)-2-fluoro-1,2,3,5,6,7-hexahydropyrrolizin-8-yl]methoxy]pyrazolo[4,3-f]quinazolin-9-yl]-N,N-dimethyl-4,6,7,8-tetrahydropyrazolo[1,5-a][1,4]diazepine-2-carboxamide], the IC50 was 100 to 10000 nM against KRAS WT and 10 to 100 nM at KRAS G12D.
`CN(C)C(=O)c1cc2n(n1)CCCN(c1nc(OC[C@@]34CCCN3C[C@H](F)C4)nc3cc(-c4cc(O)c(F)c5ccccc45)c4nn(C)cc4c13)C2` [Example 61, 5-[4-(4-fluoro-3-hydroxy-1-naphthyl)-2-methyl-7-[[(2R,8S)-2-fluoro-1,2,3,5,6,7-hexahydropyrrolizin-8-yl]methoxy]pyrazolo[4,3-f]quinazolin-9-yl]-N,N-dimethyl-4,6,7,8-tetrahydropyrazolo[1,5-a][1,4]diazepine-2-carboxamide]: the IC50 on KRAS WT lay within 100 to 10000 nM; at KRAS G12D, 10 to 100 nM.
In the case of `CN(C)C(=O)c1cc2n(n1)CCCN(c1nc(OC[C@@]34CCCN3C[C@H](F)C4)nc3cc(-c4cc(O)ccc4C#N)c4nn(C)cc4c13)C2` [Example 62], the IC50 against KRAS WT fell in the range of 100 to 10000 nM; at KRAS G12D, 10 to 100 nM.
Regarding `CCc1c(F)ccc2cccc(-c3cc4nc(OC[C@@]56CCCN5C[C@H](F)C6)nc(N5CCCn6nc(C(=O)N(C)C)cc6C5)c4c4cn(C)nc34)c12` [Example 63, 5-[4-(8-ethyl-7-fluoro-1-naphthyl)-2-methyl-7-[[(2R,8S)-2-fluoro-1,2,3,5,6,7-hexahydropyrrolizin-8-yl]methoxy]pyrazolo[4,3-f]quinazolin-9-yl]-N,N-dimethyl-4,6,7,8-tetrahydropyrazolo[1,5-a][1,4]diazepine-2-carboxamide], the IC50 against KRAS WT is 10 to 100 nM; at KRAS G12D, at most 10 nM.
Turning to `C#Cc1c(F)ccc2cc(O)cc(-c3cc4nc(OC[C@@]56CCCN5C[C@H](F)C6)nc(N5CCCn6nc(C(=O)N(C)C)cc6C5)c4c4cn(C)nc34)c12` [Example 65, 5-[4-(8-ethynyl-7-fluoro-3-hydroxy-1-naphthyl)-2-methyl-7-[[(2R,8S)-2-fluoro-1,2,3,5,6,7-hexahydropyrrolizin-8-yl]methoxy]pyrazolo[4,3-f]quinazolin-9-yl]-N,N-dimethyl-4,6,7,8-tetrahydropyrazolo[1,5-a][1,4]diazepine-2-carboxamide], the IC50 on KRAS WT and on KRAS G12D was at most 10 nM each time.
As to `CCC1CCCc2cc(O)cc(-c3cc4nc(OC[C@@]56CCCN5C[C@H](F)C6)nc(N5CCCOCC5)c4c4cn(C)nc34)c21` (stereo partly drawn) [Example 66, 1-ethyl-8-[2-methyl-9-(1,4-oxazepan-4-yl)-7-[[(2R,8S)-2-fluoro-1,2,3,5,6,7-hexahydropyrrolizin-8-yl]methoxy]pyrazolo[4,3-f]quinazolin-4-yl]tetralin-6-ol], the IC50 against KRAS WT and on KRAS G12D was 10 to 100 nM in each case.
In the case of `CCc1c(F)ccc2cc(O)cc(-c3cc4nc(OCC5(CN6CCOCC6)CC5)nc(N5CCCn6nc(C(=O)N(C)C)cc6C5)c4c4cn(C)nc34)c12` [Example 69, 5-[4-(8-ethyl-7-fluoro-3-hydroxy-1-naphthyl)-2-methyl-7-[[1-(morpholinomethyl)cyclopropyl]methoxy]pyrazolo[4,3-f]quinazolin-9-yl]-N,N-dimethyl-4,6,7,8-tetrahydropyrazolo[1,5-a][1,4]diazepine-2-carboxamide], the figures for the half-inhibitory concentration (IC50) at KRAS WT and against KRAS G12D were 10 to 100 nM and at most 10 nM, respectively.
As for `CCc1c(F)ccc2cc(O)cc(-c3cc4nc(OC[C@@H]5CCN5C)nc(N5CCCn6nc(C(=O)N(C)C)cc6C5)c4c4cn(C)nc34)c12` [Example 70], the half-maximal inhibitory concentration (IC50) against KRAS WT was 10 to 100 nM; against KRAS G12D, at most 10 nM.
On to `CCc1c(F)ccc2cc(O)cc(-c3cc4nc(OCC5(CN6CCC[C@H]6C(F)(F)F)CC5)nc(N5CCCn6nc(C(=O)N(C)C)cc6C5)c4c4cn(C)nc34)c12` [Example 71], for which the “KRAS^WT NEA” value at KRAS WT is given as “D (<49% inhibition at 10 μM)”. Also, on KRAS G12D, the “KRAS^G12D NEA” value is recorded as “D (<49% inhibition at 10 μM)”.
Consider `CCc1c(F)ccc2cc(O)cc(-c3cc4nc(OC[C@@]56CCCN5C[C@H](F)C6)nc(N5CCCn6nc(C)cc6C5)c4c4cn(C)nc34)c12` [Example 72], for which the IC50 against KRAS WT was 10 to 100 nM; on KRAS G12D, at most 10 nM.
Taken in the same sequence, the figures for `CCc1c(F)ccc2cc(O)cc(-c3cc4nc(OC[C@@]56CCCN5C[C@H](F)C6)nc(N5CCCn6nc(C#N)cc6C5)c4c4cn(C)nc34)c12` [Example 73, 5-[4-(8-ethyl-7-fluoro-3-hydroxy-1-naphthyl)-7-[[(2R,8S)-2-fluoro-1,2,3,5,6,7-hexahydropyrrolizin-8-yl]methoxy]-2-methyl-pyrazolo[4,3-f]quinazolin-9-yl]-4,6,7,8-tetrahydropyrazolo[1,5-a][1,4]diazepine-2-carbonitrile] were 10 to 100 nM and at most 10 nM.
Taken in the same sequence, the figures for `Cc1cc2[nH]ncc2c(-c2cc3nc(OC[C@@]45CCCN4C[C@H](F)C5)nc(N4CCCn5nc(C(=O)N(C)C)cc5C4)c3c3cn(C)nc23)c1C1CC1` [Example 74, 5-[4-(5-cyclopropyl-6-methyl-1H-indazol-4-yl)-2-methyl-7-[[(2R,8S)-2-fluoro-1,2,3,5,6,7-hexahydropyrrolizin-8-yl]methoxy]pyrazolo[4,3-f]quinazolin-9-yl]-N,N-dimethyl-4,6,7,8-tetrahydropyrazolo[1,5-a][1,4]diazepine-2-carboxamide] were 10 to 100 nM and at most 10 nM.
In the case of `CN(C)C(=O)c1cc2n(n1)CCCN(c1nc(OC[C@@]34CCCN3C[C@H](F)C4)nc3cc(-c4cccc5sc(N)c(C#N)c45)c4nn(C)cc4c13)C2` [Example 76, 5-[4-(2-amino-3-cyano-benzothiophen-4-yl)-7-[[(2R,8S)-2-fluoro-1,2,3,5,6,7-hexahydropyrrolizin-8-yl]methoxy]-2-methyl-pyrazolo[4,3-f]quinazolin-9-yl]-N,N-dimethyl-4,6,7,8-tetrahydropyrazolo[1,5-a][1,4]diazepine-2-carboxamide], the IC50 against KRAS WT was 10 to 100 nM; at KRAS G12D, at most 10 nM.
Taken in the same sequence, the figures for `Cc1cc(N)nc(-c2cc3nc(OC[C@@]45CCCN4C[C@H](F)C5)nc(N4CCCn5nc(C(=O)N(C)C)cc5C4)c3c3cn(C)nc23)c1C(F)(F)F` [Example 77, 5-[4-[6-amino-4-methyl-3-(trifluoromethyl)-2-pyridyl]-7-[[(2R,8S)-2-fluoro-1,2,3,5,6,7-hexahydropyrrolizin-8-cyl]methoxy]-2-methyl-pyrazolo[4,3-f]quinazolin-9-yl]-N,N-dimethyl-4,6,7,8-tetrahydropyrazolo[1,5-a][1,4]diazepine-2-carboxamide] were 100 to 10000 nM and 100 to 10000 nM.
`CCc1c(F)ccc2cc(O)cc(-c3cc4nc(OC[C@@]56CCCN5C[C@H](F)C6)nc(N5CCCn6nc(C(=O)N(C)C)cc6C5)c4c4cn(CC(F)(F)F)nc34)c12` [Example 78, 5-[4-(8-ethyl-7-fluoro-3-hydroxy-1-naphthyl)-7-[[(2R,8S)-2-fluoro-1,2,3,5,6,7-hexahydropyrrolizin-8-yl]methoxy]-2-(2,2,2-trifluoroethyl)pyrazolo[4,3-f]quinazolin-9-yl]-N,N-dimethyl-4,6,7,8-tetrahydropyrazolo[1,5-a][1,4]diazepine-2-carboxamide]: the values for the IC50 against KRAS WT and at KRAS G12D were 100 to 10000 nM and at most 10 nM, respectively.
Taken in the same sequence, the figures for `CCc1c(F)ccc2cc(O)cc(-c3c(C)c4nc(OC[C@@]56CCCN5C[C@H](F)C6)nc(N5CCCOCC5)c4c4cn(C)nc34)c12` [Example 79, 4-[2,5-dimethyl-9-(1,4-oxazepan-4-yl)-7-[[(2R,8S)-2-fluoro-1,2,3,5,6,7-hexahydropyrrolizin-8-yl]methoxy]pyrazolo[4,3-f]quinazolin-4-yl]-5-ethyl-6-fluoro-naphthalen-2-ol] were at most 10 nM and at most 10 nM.
